Results reported in ChEMBL document CHEMBL5715954, “Silencing c-Myc translation as a therapeutic strategy through targeting PI3Kδ and CK1ε in hematological malignancies” (Blood, 2017).

Legend:
Design in all cases: scale not given: the % may be the effect or the level left
[1] = target: Dual specificity protein kinase CLK2 (Homo sapiens) (UniProt P49760); assay: Inhibition of human CLK2 assessed as enzyme activity at 1 uM using myelin basic protein as substrate preincubated for 20 mins followed by [gamma-33P]-ATP addition and measured after 120 mins by radiometric Hot-SpotSM Kinase assay relative to control
[2] = target: T1, Rhodopsin kinase GRK7 (Homo sapiens) (UniProt Q8WTQ7); assay: Inhibition of human GRK7 assessed as enzyme activity at 1 uM using casein as substrate preincubated for 20 mins followed by [gamma-33P]-ATP addition and measured after 120 mins by radiometric Hot-SpotSM Kinase assay relative to control
T1 sequence (whole entry): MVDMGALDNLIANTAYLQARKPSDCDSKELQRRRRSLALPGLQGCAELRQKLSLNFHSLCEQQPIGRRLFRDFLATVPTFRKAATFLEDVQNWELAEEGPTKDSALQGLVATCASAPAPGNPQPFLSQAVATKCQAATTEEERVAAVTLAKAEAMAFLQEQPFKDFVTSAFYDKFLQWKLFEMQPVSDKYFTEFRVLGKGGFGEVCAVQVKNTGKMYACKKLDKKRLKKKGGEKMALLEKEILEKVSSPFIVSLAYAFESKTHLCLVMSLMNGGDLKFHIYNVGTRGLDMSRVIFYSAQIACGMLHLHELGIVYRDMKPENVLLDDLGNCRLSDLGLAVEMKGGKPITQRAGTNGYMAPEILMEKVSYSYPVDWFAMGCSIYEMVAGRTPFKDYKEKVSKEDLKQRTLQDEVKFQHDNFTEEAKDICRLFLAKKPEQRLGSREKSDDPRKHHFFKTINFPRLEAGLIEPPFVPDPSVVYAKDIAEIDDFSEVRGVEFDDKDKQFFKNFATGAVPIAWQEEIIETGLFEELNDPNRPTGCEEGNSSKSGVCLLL

[3] = target: Mitogen-activated protein kinase 9 (Homo sapiens) (UniProt P45984); assay: Inhibition of human JNK2-alpha2 assessed as enzyme activity at 1 uM using ATF2 as substrate preincubated for 20 mins followed by [gamma-33P]-ATP addition and measured after 120 mins by radiometric Hot-SpotSM Kinase assay relative to control
[4] = target: Mitogen-activated protein kinase kinase kinase 10 (Homo sapiens) (UniProt Q02779); assay: Inhibition of human MLK2 assessed as enzyme activity at 1 uM using myelin basic protein as substrate preincubated for 20 mins followed by [gamma-33P]-ATP addition and measured after 120 mins by radiometric Hot-SpotSM Kinase assay relative to control
[5] = target: T2, Protein kinase C epsilon type (Homo sapiens) (UniProt Q02156); assay: Inhibition of human PKCepsilon assessed as enzyme activity at 1 uM using ERMRPRKRQGSVRRRV as substrate preincubated for 20 mins followed by [gamma-33P]-ATP addition and measured after 120 mins by radiometric Hot-SpotSM Kinase assay relative to control
T2 sequence (whole entry): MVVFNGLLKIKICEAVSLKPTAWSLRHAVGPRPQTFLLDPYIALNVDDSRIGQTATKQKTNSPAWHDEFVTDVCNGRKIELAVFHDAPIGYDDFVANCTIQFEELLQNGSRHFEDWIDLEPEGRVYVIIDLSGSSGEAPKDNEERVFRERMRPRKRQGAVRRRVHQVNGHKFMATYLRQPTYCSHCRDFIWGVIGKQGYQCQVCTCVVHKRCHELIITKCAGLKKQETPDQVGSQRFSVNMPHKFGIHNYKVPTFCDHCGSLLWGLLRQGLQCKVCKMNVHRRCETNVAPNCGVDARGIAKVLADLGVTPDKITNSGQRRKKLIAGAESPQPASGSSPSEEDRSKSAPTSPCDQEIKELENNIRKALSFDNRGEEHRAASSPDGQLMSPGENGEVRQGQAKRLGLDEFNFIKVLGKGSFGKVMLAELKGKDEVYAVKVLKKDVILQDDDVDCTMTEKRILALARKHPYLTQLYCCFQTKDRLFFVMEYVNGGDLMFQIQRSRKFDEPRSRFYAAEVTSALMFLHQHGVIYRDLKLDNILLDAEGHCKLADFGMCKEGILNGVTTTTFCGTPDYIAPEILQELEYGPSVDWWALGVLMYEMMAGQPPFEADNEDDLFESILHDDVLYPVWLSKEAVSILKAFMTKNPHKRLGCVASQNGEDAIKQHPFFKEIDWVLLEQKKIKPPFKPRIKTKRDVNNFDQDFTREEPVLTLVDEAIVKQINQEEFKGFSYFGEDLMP

[6] = target: T3, Serine/threonine-protein kinase D1 (Homo sapiens) (UniProt Q15139); assay: Inhibition of human PKCmu assessed as enzyme activity at 1 uM using KKLNRTLSVA as substrate preincubated for 20 mins followed by [gamma-33P]-ATP addition and measured after 120 mins by radiometric Hot-SpotSM Kinase assay relative to control
T3 sequence (whole entry): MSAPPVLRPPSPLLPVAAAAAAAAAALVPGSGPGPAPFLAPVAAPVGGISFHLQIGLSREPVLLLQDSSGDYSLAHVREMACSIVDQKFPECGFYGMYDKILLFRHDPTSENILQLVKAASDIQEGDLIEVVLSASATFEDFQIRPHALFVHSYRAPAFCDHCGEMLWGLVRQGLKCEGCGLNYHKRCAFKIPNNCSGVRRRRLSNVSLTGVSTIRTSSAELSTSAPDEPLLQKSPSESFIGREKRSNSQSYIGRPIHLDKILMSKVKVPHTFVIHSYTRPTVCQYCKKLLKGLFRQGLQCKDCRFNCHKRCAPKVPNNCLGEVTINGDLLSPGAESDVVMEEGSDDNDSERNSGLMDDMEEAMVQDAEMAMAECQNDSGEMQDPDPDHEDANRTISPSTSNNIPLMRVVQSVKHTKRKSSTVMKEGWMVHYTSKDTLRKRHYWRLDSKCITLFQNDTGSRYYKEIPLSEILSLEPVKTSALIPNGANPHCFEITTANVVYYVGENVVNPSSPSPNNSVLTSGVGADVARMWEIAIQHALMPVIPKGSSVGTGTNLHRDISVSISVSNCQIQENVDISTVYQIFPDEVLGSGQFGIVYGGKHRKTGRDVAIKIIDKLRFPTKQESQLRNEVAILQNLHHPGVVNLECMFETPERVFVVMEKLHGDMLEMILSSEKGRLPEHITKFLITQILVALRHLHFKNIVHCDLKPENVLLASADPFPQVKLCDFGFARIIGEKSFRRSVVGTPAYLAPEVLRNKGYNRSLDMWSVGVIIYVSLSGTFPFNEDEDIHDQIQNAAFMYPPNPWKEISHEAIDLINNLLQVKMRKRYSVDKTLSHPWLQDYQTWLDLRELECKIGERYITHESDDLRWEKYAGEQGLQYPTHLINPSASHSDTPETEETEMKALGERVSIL

[7] = target: Wee1-like protein kinase (Homo sapiens) (UniProt P30291); assay: Inhibition of human WEE1 assessed as enzyme activity at 1 uM using CDK1 (D146N)/cyclin B1 as substrate preincubated for 20 mins followed by [gamma-33P]-ATP addition and measured after 120 mins by radiometric Hot-SpotSM Kinase assay relative to control
Sequence of Wee1-like protein kinase (Homo sapiens) (P30291 whole entry, looked up): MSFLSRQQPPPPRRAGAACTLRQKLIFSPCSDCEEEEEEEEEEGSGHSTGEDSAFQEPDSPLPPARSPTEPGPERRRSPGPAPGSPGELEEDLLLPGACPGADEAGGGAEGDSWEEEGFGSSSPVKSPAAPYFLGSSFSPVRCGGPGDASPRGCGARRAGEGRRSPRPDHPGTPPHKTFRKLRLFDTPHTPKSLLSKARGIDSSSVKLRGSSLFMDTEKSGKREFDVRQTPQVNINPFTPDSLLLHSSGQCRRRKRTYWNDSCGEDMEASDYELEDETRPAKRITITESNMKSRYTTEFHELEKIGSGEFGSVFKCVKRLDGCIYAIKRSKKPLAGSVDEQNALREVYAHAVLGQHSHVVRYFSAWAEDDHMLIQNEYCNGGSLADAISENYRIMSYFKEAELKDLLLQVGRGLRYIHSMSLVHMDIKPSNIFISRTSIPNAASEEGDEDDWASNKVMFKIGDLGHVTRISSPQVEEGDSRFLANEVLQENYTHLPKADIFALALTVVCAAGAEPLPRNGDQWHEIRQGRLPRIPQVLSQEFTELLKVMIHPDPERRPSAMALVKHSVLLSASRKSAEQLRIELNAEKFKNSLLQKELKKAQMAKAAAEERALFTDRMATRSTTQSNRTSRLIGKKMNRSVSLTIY

Sequence of Dual specificity protein kinase CLK2 (Homo sapiens) (P49760 whole entry, looked up): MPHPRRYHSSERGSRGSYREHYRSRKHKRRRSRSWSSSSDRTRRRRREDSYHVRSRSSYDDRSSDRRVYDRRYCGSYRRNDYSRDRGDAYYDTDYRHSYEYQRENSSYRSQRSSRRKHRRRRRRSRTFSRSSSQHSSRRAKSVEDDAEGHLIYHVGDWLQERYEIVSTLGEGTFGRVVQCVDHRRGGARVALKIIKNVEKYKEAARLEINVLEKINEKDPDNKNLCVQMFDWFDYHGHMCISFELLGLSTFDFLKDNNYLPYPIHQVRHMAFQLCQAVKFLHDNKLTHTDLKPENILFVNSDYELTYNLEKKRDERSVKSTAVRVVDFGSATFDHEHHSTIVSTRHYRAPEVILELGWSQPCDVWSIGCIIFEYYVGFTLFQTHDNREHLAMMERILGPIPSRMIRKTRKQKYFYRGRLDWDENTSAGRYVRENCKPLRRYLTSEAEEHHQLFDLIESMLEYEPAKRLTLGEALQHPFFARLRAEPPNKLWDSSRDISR
Sequence of Mitogen-activated protein kinase kinase kinase 10 (Homo sapiens) (Q02779 whole entry, looked up): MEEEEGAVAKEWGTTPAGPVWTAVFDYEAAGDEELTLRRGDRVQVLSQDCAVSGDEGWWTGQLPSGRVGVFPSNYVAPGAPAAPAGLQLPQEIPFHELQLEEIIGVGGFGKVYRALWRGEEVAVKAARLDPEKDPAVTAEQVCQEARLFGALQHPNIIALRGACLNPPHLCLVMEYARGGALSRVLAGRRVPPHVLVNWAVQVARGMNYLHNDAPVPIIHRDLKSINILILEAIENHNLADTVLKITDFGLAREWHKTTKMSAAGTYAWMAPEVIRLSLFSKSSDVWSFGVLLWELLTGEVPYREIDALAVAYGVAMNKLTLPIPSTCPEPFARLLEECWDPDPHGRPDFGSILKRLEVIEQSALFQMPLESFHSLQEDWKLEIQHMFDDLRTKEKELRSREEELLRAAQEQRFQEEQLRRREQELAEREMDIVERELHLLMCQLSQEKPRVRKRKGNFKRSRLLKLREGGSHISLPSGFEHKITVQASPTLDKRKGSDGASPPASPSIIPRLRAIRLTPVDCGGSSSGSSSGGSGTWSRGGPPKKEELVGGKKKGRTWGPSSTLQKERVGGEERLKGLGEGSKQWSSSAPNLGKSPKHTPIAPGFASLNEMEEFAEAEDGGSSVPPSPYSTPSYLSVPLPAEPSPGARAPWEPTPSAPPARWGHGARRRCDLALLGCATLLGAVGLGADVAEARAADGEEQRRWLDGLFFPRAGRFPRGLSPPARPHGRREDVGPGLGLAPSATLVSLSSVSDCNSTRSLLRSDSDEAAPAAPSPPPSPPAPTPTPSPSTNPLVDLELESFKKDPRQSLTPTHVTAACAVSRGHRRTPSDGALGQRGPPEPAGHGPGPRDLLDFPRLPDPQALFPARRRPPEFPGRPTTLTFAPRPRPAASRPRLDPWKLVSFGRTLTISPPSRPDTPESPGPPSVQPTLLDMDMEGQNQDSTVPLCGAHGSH
Sequence of Mitogen-activated protein kinase 9 (Homo sapiens) (P45984 whole entry, looked up): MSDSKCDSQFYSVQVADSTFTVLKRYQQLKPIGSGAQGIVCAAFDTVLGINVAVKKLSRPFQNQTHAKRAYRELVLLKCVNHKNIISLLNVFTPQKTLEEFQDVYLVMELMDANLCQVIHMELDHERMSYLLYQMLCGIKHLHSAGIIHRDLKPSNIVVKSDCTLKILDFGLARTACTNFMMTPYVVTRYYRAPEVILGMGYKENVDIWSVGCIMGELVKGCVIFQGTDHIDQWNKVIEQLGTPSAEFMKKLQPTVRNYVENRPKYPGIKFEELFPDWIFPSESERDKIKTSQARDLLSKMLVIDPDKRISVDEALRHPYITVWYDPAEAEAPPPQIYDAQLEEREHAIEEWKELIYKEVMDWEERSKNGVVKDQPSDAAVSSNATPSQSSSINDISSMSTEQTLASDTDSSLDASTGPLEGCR

Structure (SMILES)	Activity [1]	Activity [2]	Activity [3]	Activity [4]	Activity [5]	Activity [6]	Activity [7]
CC[C@H](Nc1ncnc2[nH]cnc12)c1nc2cccc(F)c2c(=O)n1-c1ccccc1	96.9%	95%	96.8%	112%	108%	92.3%	96.7%
C[C@H](Nc1ncnc2nc[nH]c12)c1cc2cccc(Cl)c2c(=O)n1-c1ccccc1	95.3%	101%	97.8%	103%	107%	96.1%	87.3%
CC(C)Oc1ccc(-c2nn([C@@H](C)c3oc4ccc(F)cc4c(=O)c3-c3cccc(F)c3)c3ncnc(N)c23)cc1F [UMBRALISIB]	99.5%	100%	97.3%	108%	109%	92.7%	106%
